Results reported in the supplement of paper PMC10307832.

Key:
Assay in all cases: relative viability (nuclei count vs DMSO), 5 days (fraction); higher = more cells survive
Sunitinib + Bortezomib = compound: CCN(CC)CCNC(=O)c1c(C)[nH]c(/C=C2\C(=O)Nc3ccc(F)cc32)c1C [Sunitinib] + CC(C)C[C@H](NC(=O)[C@H](Cc1ccccc1)NC(=O)c1cnccn1)B(O)O [Bortezomib] (partner 0.002 µM)
Procedure, shortened: (§1)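 Nuclei were stained with Hoechst during a one-step fixation (final 0.05% Triton X-100, 1% formaldehyde, 1 ug/ml Hoechst) carried out 5 days after dosing, then counted on 4× images. The cells, lung cancer lines in 1536-well plates, had been dosed by pin tool the day after seeding with one drug alone or a fixed anchor-drug dose plus five library-drug doses (not always all listed) in √10 steps. Relative viability is the nuclei count in treated wells divided by that in vehicle wells, and each value is the median of duplicate plates.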

Sunitinib + Lapatinib = compound: CCN(CC)CCNC(=O)c1c(C)[nH]c(/C=C2\C(=O)Nc3ccc(F)cc32)c1C [Sunitinib] + CS(=O)(=O)CCNCc1ccc(-c2ccc3ncnc(Nc4ccc(OCc5cccc(F)c5)c(Cl)c4)c3c2)o1 [Lapatinib] (partner 2 µM)
Procedure, shortened: as §1

Sunitinib + AZD7762 = compound: CCN(CC)CCNC(=O)c1c(C)[nH]c(/C=C2\C(=O)Nc3ccc(F)cc32)c1C [Sunitinib] + NC(=O)Nc1cc(-c2cccc(F)c2)sc1C(=O)N[C@H]1CCCNC1 [AZD7762] (partner 0.2 µM)
Procedure, shortened: as §1

Sunitinib + Decitabine = compound: CCN(CC)CCNC(=O)c1c(C)[nH]c(/C=C2\C(=O)Nc3ccc(F)cc32)c1C [Sunitinib] + Nc1ncn([C@H]2C[C@H](O)[C@@H](CO)O2)c(=O)n1 [Decitabine] (partner 2 µM)
Procedure, shortened: as §1

Row | Cell Line | relative viability (Sunitinib + Bortezomib; first compound 0.02 µM) | relative viability (Sunitinib + Bortezomib; first compound 0.06325 µM) | relative viability (Sunitinib + Bortezomib; first compound 0.2 µM) | relative viability (Sunitinib + Bortezomib; first compound 0.6325 µM) | relative viability (Sunitinib + Bortezomib; first compound 2 µM) | relative viability (Sunitinib + Lapatinib; first compound 0.02 µM) | relative viability (Sunitinib + Lapatinib; first compound 0.06325 µM) | relative viability (Sunitinib + Lapatinib; first compound 0.2 µM) | relative viability (Sunitinib + Lapatinib; first compound 0.6325 µM) | relative viability (Sunitinib + Lapatinib; first compound 2 µM) | relative viability (Sunitinib + AZD7762; first compound 0.02 µM) | relative viability (Sunitinib + AZD7762; first compound 0.06325 µM) | relative viability (Sunitinib + AZD7762; first compound 0.2 µM) | relative viability (Sunitinib + AZD7762; first compound 0.6325 µM) | relative viability (Sunitinib + AZD7762; first compound 2 µM) | relative viability (Sunitinib + Decitabine; first compound 0.02 µM) | relative viability (Sunitinib + Decitabine; first compound 0.06325 µM) | relative viability (Sunitinib + Decitabine; first compound 0.2 µM) | relative viability (Sunitinib + Decitabine; first compound 0.6325 µM) | relative viability (Sunitinib + Decitabine; first compound 2 µM)
1 | NCI-H1355 | 1.2 | 1.31 | 1.28 | 1.2 | 1.27 | 1.01 | 1.04 | 1.12 | 1.07 | 1.06 | 0.764 | 0.845 | 0.859 | 0.767 | 0.689 | 0.369 | 0.381 | 0.375 | 0.365 | 0.345
2 | NCI-H1437 | 0.567 | 0.643 | 0.514 | 0.494 | 0.551 | 0.789 | 1.1 | 0.928 | 0.793 | 1.03 | 1.09 | 1.14 | 1.15 | 1.13 | 1.07 | 0.566 | 0.606 | 0.624 | 0.514 | 0.628
3 | NCI-H1651 |  | 1.06 | 0.987 | 0.884 | 0.968 | 0.766 | 1.21 | 1.06 | 0.893 | 0.923 | 0.462 | 0.478 | 0.451 | 0.441 | 0.449 | 0.552 | 0.633 | 0.591 | 0.557 | 0.523
4 | NCI-H1666 | 0.867 |  | 1.01 | 0.839 | 0.86 |  | 0.9 | 0.584 | 0.719 | 0.671 | 0.782 | 1.02 | 0.907 | 0.895 | 0.886 | 0.905 | 0.884 | 0.738 | 0.698 | 0.735
5 | NCI-H1734 | 0.855 | 0.962 | 1.35 | 1.09 | 0.911 | 0.968 | 1.16 | 1.35 | 1.18 | 1.05 | 0.436 | 0.592 | 0.635 | 0.543 | 0.518 | 0.528 | 0.495 | 0.514 | 0.477 | 0.497
6 | NCI-H1755 | 0.992 | 1.02 | 1.04 | 0.93 |  | 1.04 | 1.08 | 1.09 | 1.07 | 1.02 | 0.414 | 0.478 | 0.53 | 0.408 | 0.421 | 0.69 |  | 0.663 | 0.692 | 0.76
7 | NCI-H1792 | 0.93 | 0.924 | 1.09 | 0.99 | 0.981 | 0.885 | 0.952 | 1.07 | 0.809 | 0.923 | 0.503 | 0.847 | 1.02 | 0.835 | 0.512 | 0.457 | 0.594 | 0.625 | 0.527 | 0.591
8 | NCI-H1915 |  | 0.994 | 1 | 1.05 | 1.02 | 0.958 | 1.03 | 1.04 | 0.998 | 1.02 | 0.678 | 0.741 | 0.601 | 0.749 | 0.75 | 0.266 | 0.278 | 0.264 | 0.26 | 0.271
9 | NCI-H1975 | 0.401 | 0.448 | 0.401 | 0.438 | 0.406 | 0.815 | 1.1 | 1.14 | 0.981 | 0.763 | 0.748 | 0.679 | 0.723 | 0.705 | 0.579 | 0.369 | 0.408 | 0.405 | 0.427 | 0.391
10 | NCI-H1993 | 1.1 | 1.34 | 1.36 |  | 1.04 | 0.835 | 0.889 | 0.834 | 0.836 | 0.849 | 0.723 | 0.757 | 0.782 | 0.761 | 0.845 | 0.514 | 0.632 | 0.605 | 0.577 | 0.61
11 | NCI-H2085 | 1 | 1.05 |  | 1.16 | 1.07 | 0.759 | 0.814 | 0.791 | 0.856 | 0.839 | 0.965 | 0.976 | 1.12 | 1.07 | 1 | 0.527 | 0.55 | 0.554 | 0.595 | 0.579
12 | NCI-H2087 | 0.855 | 0.793 | 0.966 | 0.994 | 1.04 |  | 1.11 | 1.01 | 1.26 | 1.03 | 1.21 | 1.42 | 1.34 | 1.41 | 1.46 | 0.273 | 0.274 | 0.315 | 0.245 | 0.264
13 | NCI-H2126 | 1.07 | 1.19 | 1.16 | 1.15 | 1.13 | 0.677 | 0.781 | 0.808 | 0.809 | 0.807 | 0.937 | 1.07 | 1.21 | 1.03 | 1.02 | 0.589 | 0.572 | 0.532 | 0.592 | 0.579
14 | NCI-H2347 | 0.853 | 1.21 | 1.1 |  | 1.11 | 0.873 |  | 1.17 | 1.03 | 0.95 | 0.709 | 0.844 | 0.813 | 0.838 | 0.871 | 0.562 | 0.617 | 0.642 | 0.66 | 
15 | NCI-H2405 | 0.997 | 0.924 | 1.09 | 1.08 | 1 | 1.03 | 1.21 | 1.18 | 1.18 |  | 0.703 | 0.759 | 0.8 | 0.878 | 0.648 | 0.811 | 0.8 | 0.761 | 0.754 | 0.761
16 | NCI-H3122 | 1.01 | 1.01 |  | 0.985 | 0.985 | 0.907 | 0.985 | 1.04 |  | 0.992 | 0.933 | 1.08 | 1.01 | 0.999 | 1.01 | 0.412 | 0.439 | 0.542 | 0.364 | 0.453
17 | PC-3 [JPC-3] | 0.836 | 0.88 | 0.893 | 0.869 | 0.732 | 0.456 | 0.459 | 0.494 | 0.464 | 0.5 | 0.844 | 0.79 | 0.845 | 0.827 | 0.865 | 0.89 | 0.788 |  | 0.79 | 0.764
18 | PC-14 | 0.946 | 0.858 | 0.99 | 0.878 | 0.726 | 0.301 | 0.332 | 0.369 | 0.33 | 0.314 | 0.374 | 0.442 | 0.387 | 0.319 | 0.348 | 0.2 | 0.23 | 0.239 | 0.23 | 0.252
19 | RERF-LC-KJ | 0.994 |  | 1.26 | 1.03 | 1.09 | 0.887 | 0.844 |  |  | 0.828 | 0.959 | 1.05 | 1.04 | 0.932 | 1 | 0.713 | 0.743 | 0.651 | 0.683 | 0.777
